Test results from PubChem BioAssay (NCI).
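Cells were grown in 96-well plates and exposed to each compound for 48 hours at five concentrations; endpoints were interpolated linearly between bracketing concentrations, or set to the highest concentration if not reached. GI50 is the concentration that inhibits growth by half. TGI marks complete inhibition of growth.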

Legend:
Assay in all cases: NCI anticancer screen, dose series, 48 h
SNB-75 CNS = test system: SNB-75 CNS
UACC-62 melanoma = test system: UACC-62 melanoma
U251 CNS = test system: U251 CNS
RPMI-8226 leukemia = test system: RPMI-8226 leukemia
NCI-H23 lung = test system: NCI-H23 lung
786-0 renal = test system: 786-0 renal
SF-539 CNS = test system: SF-539 CNS
OVCAR-5 ovarian = test system: OVCAR-5 ovarian
EKVX NSCLC = test system: EKVX NSCLC
A498 renal = test system: A498 renal

SMILES	TGI (SNB-75 CNS)	TGI (UACC-62 melanoma)	TGI (U251 CNS)	TGI (RPMI-8226 leukemia)	TGI (NCI-H23 lung)	TGI (786-0 renal)	TGI (SF-539 CNS)	TGI (OVCAR-5 ovarian)	TGI (EKVX NSCLC)	TGI (A498 renal)	GI50 (SNB-75 CNS)	GI50 (UACC-62 melanoma)	GI50 (U251 CNS)	GI50 (RPMI-8226 leukemia)	GI50 (NCI-H23 lung)	GI50 (786-0 renal)	GI50 (SF-539 CNS)	GI50 (OVCAR-5 ovarian)	GI50 (EKVX NSCLC)	GI50 (A498 renal)
COc1ccc(NC(=O)CC(=O)n2nc(-c3ccccc3)c(N=Nc3ccccc3C)c2-c2ccccc2)cc1	36.6 µM	46.6 µM	35.3 µM	> 100 µM	51.1 µM	35.5 µM	28.8 µM	> 100 µM	45.2 µM	52.6 µM	–	–	–	–	–	–	–	–	–	–
CC(C)NCCCCCNc1cc(O)cc2cccnc12	> 100 µM	> 100 µM	> 100 µM	> 100 µM	> 100 µM	> 100 µM	> 100 µM	> 100 µM	> 100 µM	> 100 µM	> 58.2 µM	> 100 µM	> 100 µM	> 23.1 µM	> 24.6 µM	> 100 µM	> 100 µM	> 100 µM	22.8 µM	–
CCOC(=O)/C(=C/c1ccc(Cl)cc1)N(CC)CC	> 100 µM	> 100 µM	> 100 µM	> 100 µM	> 100 µM	> 100 µM	> 100 µM	> 100 µM	> 100 µM	> 100 µM	–	–	–	–	–	–	–	–	–	–
Cc1ccc2nc(CC(=O)c3ccc4ccccc4c3)c(=O)[nH]c2c1	> 100 µM	> 100 µM	> 100 µM	> 100 µM	> 100 µM	> 100 µM	> 100 µM	> 100 µM	> 100 µM	> 100 µM	–	–	–	–	–	–	–	–	–	–
CC1OC(n2cc(I)c(=O)[nH]c2=O)C=CC1=O (centres undefined)	31.1 µM	31.2 µM	27.6 µM	38.7 µM	30.7 µM	26.9 µM	27.5 µM	39.7 µM	32.3 µM	29.6 µM	–	–	–	–	–	–	–	–	–	–
Cc1cccc2c1NC(=O)C2(c1ccc(O)cc1)c1ccc(O)cc1	37.5 µM	35.1 µM	48.9 µM	64 µM	31.8 µM	40.1 µM	45.8 µM	67.1 µM	98.9 µM	25.1 µM	0.0601 µM	11.4 µM	18.9 µM	17.9 µM	0.0459 µM	17.9 µM	17.7 µM	12.8 µM	16.4 µM	0.559 µM
O=C(O)C1CCCCC1C(=O)Nc1nc2ccccc2[nH]1 (centres undefined)	> 100 µM	> 100 µM	> 100 µM	> 100 µM	> 100 µM	> 100 µM	> 100 µM	> 100 µM	> 100 µM	> 100 µM	–	–	–	–	–	–	–	–	–	–
O=C(c1ccncc1)N1CCN(C2=NS(=O)(=O)c3ccccc3N2c2ccccc2)CC1	53.2 µM	21.6 µM	> 100 µM	96.2 µM	41.6 µM	37.2 µM	22.8 µM	> 100 µM	> 100 µM	36.9 µM	15.5 µM	7.99 µM	8.32 µM	35.5 µM	7.43 µM	7.37 µM	3.85 µM	33.4 µM	35 µM	19.7 µM
